Data on three compounds can be found in patent US20240228486A1, “SULFONE- AND SULFOXIMINE-BASED SELECTIVE PARP1 INHIBITORS” (Enliven Inc., priority 2022, published 2024).

Where only a bound is given, the exact number is not on record here.

Test [1] concerns the target PARP1 (Homo sapiens (Human), UniProt P09874). The experiment in a line: PARP1 FP Assay. It counts as binding. The note with it: PARP1 fluorescence polarization probe assay, 4 hours at room temperature. The method, then: Compounds were dissolved and 4-fold serially diluted in DMSO. Compounds were transferred by an Echo to the assay plate to reach final concentrations ranging from 10 μM to 0.01 nM.
Assay buffer was composed of 50 mM Tris pH 8.0, 10 mM MgCl2, 150 mM NaCl and 0.001% Triton X100.
Background: Polarisation of emitted light reports the rotation of a fluorescent probe.

For test [2], the target named is PARP2 (Homo sapiens (Human), UniProt Q9UGN5). Kind of test: PARP2 FP Assay. It counts as binding. The note with it: PARP2 fluorescence polarization probe assay, 4 hours at room temperature.
Test [3] deals with PARylation level in MDA-MB-436. Kind of test: PARPylation MSD Assay on MDA-MB-436. It counts as cell-based. The note with it: Homo sapiens; MDA-MB-436 cells, 4 hours incubation with compound, electrochemiluminescent (MSD) detection of PARylation. The method, then: Compounds were dissolved and 4-fold serially diluted in DMSO.
Plates were incubated for 1 hour at room temperature, with shaking. […] Plates were incubated for 1 hour at room temperature, with shaking.

PARP2, sequence (Q9UGN5 whole entry): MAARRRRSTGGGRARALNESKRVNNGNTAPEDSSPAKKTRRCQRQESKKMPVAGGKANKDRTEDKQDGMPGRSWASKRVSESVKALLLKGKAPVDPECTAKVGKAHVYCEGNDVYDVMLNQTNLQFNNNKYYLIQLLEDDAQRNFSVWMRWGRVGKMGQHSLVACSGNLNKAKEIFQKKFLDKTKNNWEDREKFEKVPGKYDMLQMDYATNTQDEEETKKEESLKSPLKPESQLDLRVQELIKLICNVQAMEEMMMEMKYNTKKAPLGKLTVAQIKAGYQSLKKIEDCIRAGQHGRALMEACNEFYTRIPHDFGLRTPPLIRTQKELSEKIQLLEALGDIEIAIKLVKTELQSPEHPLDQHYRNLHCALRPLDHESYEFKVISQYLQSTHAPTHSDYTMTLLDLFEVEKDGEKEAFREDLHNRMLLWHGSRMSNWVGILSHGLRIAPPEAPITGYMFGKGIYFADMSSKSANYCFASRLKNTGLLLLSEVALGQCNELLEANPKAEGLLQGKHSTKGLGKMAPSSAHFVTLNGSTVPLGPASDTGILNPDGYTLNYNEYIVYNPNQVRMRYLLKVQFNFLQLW
PARP1, sequence (P09874 whole entry): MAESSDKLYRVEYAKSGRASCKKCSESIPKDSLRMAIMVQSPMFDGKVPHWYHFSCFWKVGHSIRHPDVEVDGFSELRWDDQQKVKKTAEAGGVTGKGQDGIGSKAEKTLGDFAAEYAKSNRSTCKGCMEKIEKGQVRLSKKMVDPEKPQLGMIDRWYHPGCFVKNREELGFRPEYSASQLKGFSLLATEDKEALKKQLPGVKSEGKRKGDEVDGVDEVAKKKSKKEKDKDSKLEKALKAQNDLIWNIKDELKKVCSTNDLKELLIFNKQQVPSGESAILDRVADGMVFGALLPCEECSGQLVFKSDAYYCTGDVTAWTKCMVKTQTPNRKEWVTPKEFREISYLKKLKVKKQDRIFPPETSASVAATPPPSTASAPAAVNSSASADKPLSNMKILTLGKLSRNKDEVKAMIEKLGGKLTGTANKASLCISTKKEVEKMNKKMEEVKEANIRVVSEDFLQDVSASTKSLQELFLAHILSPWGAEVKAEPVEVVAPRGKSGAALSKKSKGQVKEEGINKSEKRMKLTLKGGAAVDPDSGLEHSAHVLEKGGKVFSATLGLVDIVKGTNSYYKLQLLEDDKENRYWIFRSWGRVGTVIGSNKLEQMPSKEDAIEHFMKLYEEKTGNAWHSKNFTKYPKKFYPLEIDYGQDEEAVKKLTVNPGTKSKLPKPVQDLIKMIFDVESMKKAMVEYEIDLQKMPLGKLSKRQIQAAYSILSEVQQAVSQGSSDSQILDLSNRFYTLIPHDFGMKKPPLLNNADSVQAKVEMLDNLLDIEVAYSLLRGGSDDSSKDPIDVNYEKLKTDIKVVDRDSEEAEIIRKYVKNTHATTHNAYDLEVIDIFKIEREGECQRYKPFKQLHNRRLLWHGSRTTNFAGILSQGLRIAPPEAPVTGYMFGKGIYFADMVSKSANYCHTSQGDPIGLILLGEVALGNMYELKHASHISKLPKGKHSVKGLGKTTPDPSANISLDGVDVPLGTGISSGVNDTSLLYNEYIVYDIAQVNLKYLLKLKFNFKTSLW

As to `CCc1cc2ncc([S@](=N)(=O)C3CCN(c4ccc(C(=O)NC)nc4)CC3)cc2[nH]c1=O` (single isomer, unassigned) [Compound 2.7], the IC50 (in general, the concentration needed to halve the response being measured) was 6.89 nM in test [1], greater than 10000 nM in test [2] and 10.8 nM in test [3].

`CCc1cc2ncc([S@@](=N)(=O)C3CCN(c4ccc(C(=O)NC)nc4)CC3)cc2[nH]c1=O` (single isomer, unassigned) [Compound 2.8]: the IC50 in test [1] was 8.66 nM; in test [2], greater than 10000 nM; in test [3] it was 0.515 nM.

For `CCc1cc2ncc(S(=O)(=O)N3CCN(c4ccc(F)cc4F)CC3)cc2[nH]c1=O` [Compound 2.6, 7-((4-(2,4-difluorophenyl)piperazin-1-yl)sulfonyl)-3-ethyl-1,5-naphthyridin-2(1H)-one], the IC50 in test [1] was greater than 10000 nM; in test [2], greater than 10000 nM; in test [3] it was greater than 1000 nM.
